Measurements reported in ChEMBL document CHEMBL1128946, “Novel inhibitors of influenza sialidases related to GG167 structure-activity, crystallographic and Molecular dynamics studies with 4H-pyran-2-carboxylic acid 6-carboxamides” (Bioorg Med Chem Lett, 1996).

Each compound was assayed against Neuraminidase (Influenza A virus (A/Puerto Rico/8/1934(H1N1)), UniProt P03468) (assay: Inhibition of influenza A sialidase (neuraminidase)).
Set-up: species or system Influenza A virus (strain: A/PR/8/34)

Row | SMILES | IC50
1 | CNC(=O)[C@@H]1OC(C(=O)O)=C[C@H](N)[C@H]1NC(C)=O | 190000 nM
2 | CC(=O)N[C@@H]1[C@@H](N=C(N)N)C=C(C(=O)O)O[C@H]1C(=O)N(C)C | 25 nM
3 | CCCN(CCC)C(=O)[C@@H]1OC(C(=O)O)=C[C@H](N)[C@H]1NC(C)=O | 3 nM
4 | CCN(CCc1ccccc1)C(=O)[C@@H]1OC(C(=O)O)=C[C@H](N)[C@H]1NC(C)=O | 5 nM
5 | CCN(CC)C(=O)[C@@H]1OC(C(=O)O)=C[C@H](N)[C@H]1NC(C)=O | 3 nM
6 | CCCN(CCc1ccccc1)C(=O)[C@@H]1OC(C(=O)O)=C[C@H](N=C(N)N)[C@H]1NC(C)=O | 5 nM
7 | CCNC(=O)[C@@H]1OC(C(=O)O)=C[C@H](N)[C@H]1NC(C)=O | 13000 nM
8 | CNC(=O)[C@@H]1OC(C(=O)O)=C[C@H](N=C(N)N)[C@H]1NC(C)=O | 7000 nM
9 | CCCCN(CCCC)C(=O)[C@@H]1OC(C(=O)O)=C[C@H](N=C(N)N)[C@H]1NC(C)=O | 16 nM
10 | CC(=O)N[C@H]1[C@H]([C@H](O)[C@H](O)CO)OC(C(=O)O)=C[C@@H]1N | 300 nM
11 | CC(=O)N[C@@H]1[C@@H](N)C=C(C(=O)O)O[C@H]1C(=O)NCCc1ccccc1 | 12000 nM
12 | CCN(CC)C(=O)[C@@H]1OC(C(=O)O)=C[C@H](NC(=N)N)[C@H]1NC(C)=O | 1 nM
13 | CC(=O)N[C@@H]1[C@@H](N)C=C(C(=O)O)O[C@H]1C(=O)N(C)CCc1ccccc1 | 320 nM
14 | CCCN(CCc1ccc(-c2ccccc2)cc1)C(=O)[C@@H]1OC(C(=O)O)=C[C@H](N)[C@H]1NC(C)=O | 3 nM
